Where two headings read alike, the source gives them in different places.
What was measured:
Type in all cases: in vivo
Puccinia recondita = experiment: Test B: wheat leaf rust, preventive spray on wheat seedlings; details: for Test B disease control rating: wheat leaf rust; for Test B disease control rating (100 = 100% disease control, 0 = no disease control): wheat seedlings sprayed to run-off, inoculated the following day, rating relative to controls, unmarked compounds (standard test rate)
Summary of the method: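 Wheat seedlings were sprayed to run-off with compound (3% acetone, 250 ppm Trem 014), then inoculated with P. recondita spores the next day. They were held 24 h saturated at 20 °C, then 6 days at 20 °C. Ratings are 0–100% disease control versus controls.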

Pyricularia oryzae = details: for Test C disease control rating: rice blast; for Test C disease control rating (100 = 100% disease control, 0 = no disease control): rice seedlings sprayed to run-off, inoculated the following day, rating relative to controls, unmarked compounds (standard test rate)
Botrytis cinerea = experiment: Test E: gray mold, preventive spray on cucumber seedlings; details: for Test E disease control rating: gray mold on cucumber; for Test E disease control rating (100 = 100% disease control, 0 = no disease control): cucumber seedlings sprayed to run-off, inoculated the following day, rating relative to controls, unmarked compounds (standard test rate)
Summary of the method: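 Compounds in 3% acetone were suspended with 250 ppm Trem 014 surfactant and sprayed to run-off on cucumber seedlings. B. cinerea spores were inoculated next day, then 48 h saturated humidity at 20° C and 5 days at 20° C. Disease control rated 0–100% versus controls.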

[1] = system: Eiysiphe graminis f. sp. tritici; experiment: Test A: wheat powdery mildew, preventive spray on wheat seedlings; details: for Test A disease control rating: wheat powdery mildew; for Test A disease control rating (100 = 100% disease control, 0 = no disease control): wheat seedlings sprayed to run-off, inoculated the following day, rating relative to controls, unmarked compounds (standard test rate)
Summary of the method: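 Compounds (3% acetone, 250 ppm Trem 014) sprayed to run-off on wheat seedlings, inoculated next day with spore dust. Incubated 7 days at 20° C before disease rating, 0–100% control relative to untreated controls.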

Phytophthora infestans = details: for Test D disease control rating: tomato late blight; for Test D disease control rating (100 = 100% disease control, 0 = no disease control): tomato seedlings sprayed to run-off, inoculated the following day, rating relative to controls, unmarked compounds (standard test rate)
[2] = 100 = 100% disease control, 0 = no control, unmarked entries (standard test concentration)
[3] = 100 = 100% disease control, 0 = no control relative to controls, unmarked entries (standard test concentration)

Structure (SMILES) | Test B disease control rating (100 = 100% disease control, 0 = no disease control) (Puccinia recondita) [%] | Test C disease control rating (100 = 100% disease control, 0 = no disease control) (Pyricularia oryzae) [%] | Test E disease control rating (100 = 100% disease control, 0 = no disease control) (Botrytis cinerea) [%] | Test A disease control rating (100 = 100% disease control, 0 = no disease control) [1] [%] | Test D disease control rating (100 = 100% disease control, 0 = no disease control) (Phytophthora infestans) [%] | other results
CCC1(C(=O)NCCCc2ccccc2)C(C)C1(Cl)Cl (stereo not shown) [compound 154] |  |  |  |  |  | Test B disease control rating (Puccinia recondita; [2]): 0%; Test C disease control rating (Pyricularia oryzae; [2]): 52%; Test E disease control rating (Botrytis cinerea; [2]): 0%; Test A disease control rating [1, 3]: 52%; Test D disease control rating (Phytophthora infestans; [2]): 0%
CCC1(C(=O)NCCCc2ccccc2)C(C)C1(Cl)Cl (stereo not shown) [compound 155] |  |  |  |  |  | Test B disease control rating (Puccinia recondita; [2]): 0%; Test C disease control rating (Pyricularia oryzae; [2]): 86%; Test E disease control rating (Botrytis cinerea; [2]): 0%; Test A disease control rating [1, 3]: 71%; Test D disease control rating (Phytophthora infestans; [2]): 23%
CCC1(C(=O)NCC=Cc2ccccc2)C(C)C1(Cl)Cl (stereo not shown) [compound 156] |  |  |  |  |  | Test B disease control rating (Puccinia recondita; tested at 40 ppm): 0%; Test C disease control rating (Pyricularia oryzae; tested at 40 ppm): 0%; Test E disease control rating (Botrytis cinerea; tested at 40 ppm): 0%; Test A disease control rating ([1]; tested at 40 ppm): 0%; Test D disease control rating (Phytophthora infestans; tested at 40 ppm): 0%
CCC1(C(=O)NCC=Cc2ccccc2F)C(C)C1(Cl)Cl (stereo not shown) [compound 157] |  |  |  |  |  | Test B disease control rating (Puccinia recondita; tested at 40 ppm): 0%; Test C disease control rating (Pyricularia oryzae; tested at 40 ppm): 97%; Test E disease control rating (Botrytis cinerea; tested at 40 ppm): 0%; Test A disease control rating ([1]; tested at 40 ppm): 0%; Test D disease control rating (Phytophthora infestans; tested at 40 ppm): 0%
CCC1(C(=O)NCC=Cc2ccccc2Cl)C(C)C1(Cl)Cl (stereo not shown) [compound 158] |  |  |  |  |  | Test B disease control rating (Puccinia recondita; tested at 40 ppm): 0%; Test C disease control rating (Pyricularia oryzae; tested at 40 ppm): 52%; Test E disease control rating (Botrytis cinerea; tested at 40 ppm): 0%; Test A disease control rating ([1]; tested at 40 ppm): 0%; Test D disease control rating (Phytophthora infestans; tested at 40 ppm): 0%
CCC1(C(=O)NCC=Cc2cccc(Cl)c2)C(C)C1(Cl)Cl (stereo not shown) [compound 159] |  |  |  |  |  | Test B disease control rating (Puccinia recondita; [2]): 0%; Test C disease control rating (Pyricularia oryzae; [2]): 0%; Test E disease control rating (Botrytis cinerea; [2]): 47%; Test A disease control rating [1, 3]: 0%; Test D disease control rating (Phytophthora infestans; [2]): 0%
CCC1(C(=O)NCC=Cc2cccc(Br)c2)C(C)C1(Cl)Cl (stereo not shown) [compound 160] |  |  |  |  |  | Test B disease control rating (Puccinia recondita; tested at 40 ppm): 86%; Test C disease control rating (Pyricularia oryzae; tested at 40 ppm): 52%; Test E disease control rating (Botrytis cinerea; tested at 40 ppm): 0%; Test A disease control rating ([1]; tested at 40 ppm): 57%; Test D disease control rating (Phytophthora infestans; tested at 40 ppm): 85%
CCC1(C(=O)NCC=Cc2ccccc2CC#N)C(C)C1(Cl)Cl (stereo not shown) [compound 161] |  |  |  |  |  | Test B disease control rating (Puccinia recondita; tested at 40 ppm): 0%; Test C disease control rating (Pyricularia oryzae; tested at 40 ppm): 0%; Test E disease control rating (Botrytis cinerea; tested at 40 ppm): 0%; Test A disease control rating ([1]; tested at 40 ppm): 0%; Test D disease control rating (Phytophthora infestans; tested at 40 ppm): 0%
CCC1(C(=O)NCC=Cc2ccc(F)cc2F)C(C)C1(Cl)Cl (stereo not shown) [compound 162] |  |  |  |  |  | Test B disease control rating (Puccinia recondita; [2]): 0%; Test C disease control rating (Pyricularia oryzae; [2]): 74%; Test E disease control rating (Botrytis cinerea; [2]): 82%; Test A disease control rating [1, 3]: 0%; Test D disease control rating (Phytophthora infestans; [2]): 95%
CCC1(C(=O)NCC=Cc2cc(Cl)ccc2Cl)C(C)C1(Cl)Cl (stereo not shown) [compound 163] |  |  |  |  |  | Test B disease control rating (Puccinia recondita; tested at 40 ppm): 0%; Test C disease control rating (Pyricularia oryzae; tested at 40 ppm): 52%; Test E disease control rating (Botrytis cinerea; tested at 40 ppm): 0%; Test A disease control rating ([1]; tested at 40 ppm): 0%; Test D disease control rating (Phytophthora infestans; tested at 40 ppm): 42%
CCC1(C(=O)NCC=Cc2cccs2)C(C)C1(Cl)Cl (stereo not shown) [compound 164] |  |  |  |  |  | Test B disease control rating (Puccinia recondita; [2]): 0%; Test C disease control rating (Pyricularia oryzae; [2]): 72%; Test E disease control rating (Botrytis cinerea; [2]): 7%; Test A disease control rating [1, 3]: 0%; Test D disease control rating (Phytophthora infestans; [2]): 56%
CCC1(C(=O)NC(C)COc2ccc(Cl)c(Cl)c2)C(C)C1(Cl)Cl (stereo not shown) [compound 230] | 0 | 53 | 45 | 0 | 0 | 
CCC1(C(=O)NC(C)COc2ccc(Cl)c(F)c2)C(C)C1(Cl)Cl (stereo not shown) [compound 231] | 0 | 97 | 93 | 0 | 0 | 
CCC1(C(=O)NC(C)COc2ccc(F)c(Cl)c2)C(C)C1(Cl)Cl (stereo not shown) [compound 232] | 0 | 100 | 69 | 62 | 35 | 
CCC1(C(=O)NC(C)COc2c(F)ccc(F)c2F)C(C)C1(Cl)Cl (stereo not shown) [compound 233] | 0 | 94 | 6 | 62 | 9 | 
CCC1(C(=O)NC(C)COc2cc(F)cc(F)c2)C(C)C1(Cl)Cl (stereo not shown) [compound 234] | 0 | 100 | 0 | 0 | 0 | 
CCC1(C(=O)NC(C)COc2cc(F)c(F)cc2F)C(C)C1(Cl)Cl (stereo not shown) [compound 236] | 0 | 97 | 0 | 77 | 0 | 
CCC1(C(=O)NC(C)COc2c(F)cc(F)cc2F)C(C)C1(Cl)Cl (stereo not shown) [compound 237] | 0 | 53 | 0 | 62 | 9 | 
CCC1(C(=O)NC(C)COc2cc(Cl)ccc2C#N)C(C)C1(Cl)Cl (stereo not shown) [compound 239] | 0 | 97 | 0 | 0 | 88 | 
CCc1cccc(OCC(C)NC(=O)C2(CC)C(C)C2(Cl)Cl)c1 (stereo not shown) [compound 240] | 0 | 94 | 0 | 63 | 96 | 
CCC1(C(=O)NC(C)COc2ccc(C(C)(C)C)cc2)C(C)C1(Cl)Cl (stereo not shown) [compound 241] | 0 | 74 | 0 | 38 | 74 | 
CCC1(C(=O)NC(C)COc2cc(Cl)c(Cl)cc2Cl)C(C)C1(Cl)Cl (stereo not shown) [compound 242] | 0 | 74 | 0 | 0 | 96 | 
CCC1(C(=O)NC(C)COc2ccc(Cl)c(Cl)c2Cl)C(C)C1(Cl)Cl (stereo not shown) [compound 243] | 0 | 74 | 0 | 38 | 74 | 
CCC1(C(=O)NC(C)COc2cc(F)ccc2C#N)C(C)C1(Cl)Cl (stereo not shown) [compound 245] | 0 | 100 | 0 | 72 | 0 | 
CCC1(C(=O)NC(C)COc2cc(Br)ccc2C#N)C(C)C1(Cl)Cl (stereo not shown) [compound 246] | 0 | 97 | 0 | 53 | 0 | 
CCC1(C(=O)NC(C)COc2cc(I)ccc2C#N)C(C)C1(Cl)Cl (stereo not shown) [compound 247] | 0 | 85 | 0 | 53 | 0 | 
